Measured values reported in PubChem BioAssay (NCI).
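Assay format: 96-well plates, 48-hour exposure. At the TGI there is no net growth.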

How the values were obtained:
Test in all cases: NCI anticancer screen, dose series, 48 h
[1] = system: A549 NSCLC
[2] = system: CAKI-1 renal
[3] = system: COLO 205 colon
[4] = system: HCT-15 colon
[5] = system: HL-60(TB) leukemia
[6] = system: HS 578T breast
[7] = system: K-562 leukemia
[8] = system: MOLT-4 leukemia
[9] = system: OVCAR-3 ovarian
[10] = system: PC-3 prostate
[11] = system: SNB-75 CNS
[12] = system: SR leukemia
[13] = system: SW-620 colon
[14] = system: U251 CNS
[15] = system: BT-549 breast
[16] = system: NCI-H522 lung

Row | Compound | TGI [1] | TGI [2] | TGI [3] | TGI [4] | TGI [5] | TGI [6] | TGI [7] | TGI [8] | TGI [9] | TGI [10] | TGI [11] | TGI [12] | TGI [13] | TGI [14] | TGI [15] | TGI [16]
1 | CC(Nc1ncc2c(n1)-c1ccccc1OC2)C(=O)O (stereo unspecified) | > 100 µM | > 100 µM | > 100 µM | > 100 µM | 26.1 µM | > 100 µM | > 100 µM | > 100 µM | > 100 µM | > 100 µM | > 100 µM | > 100 µM | > 100 µM | > 100 µM |  | 
2 | CCCNC(=S)/N=C/c1c(O)cc(C)oc1=O | > 100 µM | > 100 µM | > 100 µM | > 100 µM |  |  |  | > 100 µM | > 100 µM | > 100 µM | > 100 µM |  | > 100 µM | > 100 µM | > 100 µM | 
3 | COC(=O)C(N)CCCC(N)C(=O)NC(C)C(=O)NC(CCC(=O)NCCNCCNc1c2ccccc2nc2cccc([N+](=O)[O-])c12)C(N)=O (stereo unspecified) | > 43.6 µM | > 100 µM | 20.4 µM | 48.6 µM |  | 38.8 µM | 20.7 µM | > 100 µM | 47.7 µM | 29.5 µM | 26.1 µM | > 100 µM | 47.3 µM | > 41.1 µM | 38.5 µM | 
4 | CC(C)(O)/C=C\P(=O)(O)O | > 100 µM | > 100 µM | > 100 µM | > 100 µM |  | > 100 µM | > 100 µM |  | > 100 µM | > 100 µM | > 100 µM | > 100 µM | > 100 µM | > 100 µM |  | > 100 µM
5 | CCOC(=O)C(/C(=N/S(=O)(=O)c1cc(C)c(Cl)cc1[S-])[n+]1ccc(N(C)C)cc1)=C(/O)c1ccc([N+](=O)[O-])cc1 | > 100 µM | 99.7 µM | 90.2 µM | > 100 µM | 64.5 µM |  | > 100 µM | > 100 µM | > 100 µM | 68.6 µM |  | > 100 µM |  | > 100 µM | 92.7 µM | 34.6 µM
6 | C#C[C@]1(O)CC[C@H]2[C@@H]3CCC4=C/C(=N/OCCN(C)C)CC[C@]4(C)[C@H]3CC[C@@]21C | > 100 µM | > 100 µM | > 100 µM | > 100 µM |  | > 100 µM | > 100 µM | > 100 µM | 65.2 µM | > 100 µM | > 100 µM | 67.5 µM | > 100 µM | > 100 µM | > 100 µM | 62.6 µM
7 | O=c1[nH]c(=O)n(COCc2ccccc2)c2ccsc12 | > 100 µM | > 100 µM | > 100 µM | > 100 µM |  | > 100 µM | > 100 µM | > 100 µM |  | > 100 µM | > 100 µM | > 100 µM | > 100 µM | > 100 µM | > 100 µM | > 100 µM
8 | COc1cc(NS(C)(=O)=O)ccc1Nc1cc[nH]c2ccc3nccc3c12 | 34.9 µM | 32.5 µM | 41.4 µM | > 100 µM | 53.2 µM | > 100 µM | 25.7 µM |  | 29.4 µM | 26 µM |  |  | 41 µM | 27.3 µM | 28.7 µM | 22.6 µM
9 | C[C@@H](c1ccccc1)n1c(N)c(-c2ccccn2)c2ccc([N+](=O)[O-])cc2c1=O | > 100 µM | > 100 µM | > 100 µM | > 100 µM | > 100 µM | > 100 µM |  |  |  | > 100 µM | 63 µM | > 100 µM | > 100 µM | > 100 µM | > 100 µM | > 100 µM
10 | CNNC1=NS(=O)(=O)c2cc(C#N)c(Cl)cc2S1 | > 10 µM | > 10 µM | > 10 µM | > 10 µM | > 10 µM | > 10 µM | > 10 µM | > 10 µM | > 10 µM | > 10 µM | > 10 µM |  | > 10 µM | > 10 µM | > 10 µM | > 10 µM
11 | CCN(CC)c1cccc2c1/C(=N/O)CCCC2 | > 100 µM |  | > 100 µM | > 100 µM | > 100 µM |  | > 100 µM | > 100 µM |  |  | > 100 µM | > 100 µM | > 100 µM | > 100 µM |  | > 100 µM
12 | O=c1oc2ccccc2nc1/C=C(\O)c1ccc(Cl)cc1 | > 100 µM | > 100 µM | > 100 µM | > 100 µM |  | > 100 µM | > 100 µM | > 100 µM | > 100 µM | > 100 µM | > 100 µM | > 100 µM |  | > 100 µM | > 100 µM | > 100 µM
13 | CC#CC(O)(C(=O)OCCCN(C)C)C1CCCCC1 (stereo unspecified) | > 100 µM |  | > 100 µM | > 100 µM | > 100 µM | > 100 µM | > 100 µM | > 100 µM | > 100 µM | > 100 µM | > 100 µM | > 100 µM | > 100 µM | > 100 µM | > 100 µM | 
14 | c1ccc(-c2nnn3c2NC2=C(CCCC2)C3c2ccccc2)cc1 (stereo unspecified) | 32.8 µM | 38.8 µM | 30.2 µM | 3.04 µM | 37.2 µM | 81.7 µM | 29.2 µM | 24.7 µM | 37.7 µM | 34.3 µM |  | 31.1 µM | 28.9 µM | 26 µM |  | 19.9 µM
15 | CCOC(=O)c1c(N)n(-c2ccccc2)c(=O)n(-c2ccccc2)c1=O | > 100 µM |  | > 100 µM | > 100 µM | > 100 µM | > 100 µM | > 100 µM | > 100 µM | > 100 µM |  | > 100 µM | > 100 µM | > 100 µM | > 100 µM | > 100 µM | > 100 µM
16 | CCc1ccccc1N=NC(=O)NNc1ccccc1CC | 31.9 µM | 95.2 µM |  | 38.1 µM | 56.9 µM |  | 68.5 µM | 50.1 µM | 33.2 µM | 37.5 µM | 45.7 µM | 57.1 µM | 37.5 µM | 29.6 µM | 34.3 µM | 41.3 µM
